Data taken from patent US20230241124A1, “ISOTONIC LIPID EMULSION” (priority 2020, published 2023).
Structures can show the parent of a compound that is named as a salt.

System: cardiac ischemia
Assay: dosage study in the monkey model of cardiac ischemia
Type: in vivo
Experimental: This was done in groups of n=8 animals. […] The control groups consisted of sham operated animals undergoing no ischemia, and 2 groups undergoing cardiac ischemia: a saline control (n=8), and a “positive control” group (n=8) treated with Metoprolol tartrate (3 mg/kg), as usually applied to MI patients.

[1] = day 7, positive control 3 mg/kg

COCCc1ccc(OCC(O)CNC(C)C)cc1 (stereo not shown) [Metoprolol tartrate]
NT Pro BNP concentration [1]: 45.7 ± 15.4 pg/mL | ratio of infarcted heart area [1]: 5.80+/−1.83% | index of myocardial contractility (−dp/dt) (positive control 3 mg/kg): remained unchanged | reduction of infarcted area versus saline control (positive control 3 mg/kg): 55%
